# Assay results taken from US6491922B1, “Methods and compounds for treating autoimmune and vascular disease” (Cornell Research Foundation, Inc., priority 1996, dated 2002).
# Legend:
# THP-1 cells = experiment: THP-1 cell viability; type: cell-based, human; settings: LPG 0.01 to 2 μM, data not shown
# IL-1β transcription = experiment: In vitro transcription by nuclear run-off assay, IL-1β; type: cell-based, human; settings: THP-1 nuclei; 2 μM LPG 2 h, LPS 2 μg/ml 4 h
# Description: Nuclei isolation. Procedures for isolating nuclei have been described in Ausubel, F. M. et al., Current Protocols in Molecular Biology 1(4.9):4.9.1-4.9.14 and 1(4.10):4.10.1-4.10.11 (1993), hereby incorporated by reference. THP-1 cells (5×10^7 cells) treated with medium or medium containing 2 μM LPG for 2 h were stimulated or not stimulated with 2 μg/ml LPS for 4 h, at 37° C. in 5% CO2. Cells were harvested by gentle scraping, washed twice with 5 ml ice cold PBS and centrifugation at 350×g for 5 min. After removal of supernatant, cells were gently loosen by 5 sec vortex and 4 ml NP-40 buffer was added by continuous vortex. The NP-40 buffer is composed of 10 mM Tris HCl (pH 7.4), 10 mM NaCl, 3 mM MgCl2, and 0.5% noridet P-40 (NP-40). The cell suspension was further vortexed at half maximal speed for 10 sec and placed on ice for 5 min. Cells were visually inspected to ascertain the separation of nuclei from cytophasmic material. Nuclei were wash once more with 4 ml NP-40 buffer by centrifugation at 350×g, 5 min. The pelleted nuclei were resuspended with 200 μl glycerol buffer and stored in liquid nitrogen until nuclear run-off assay. Glycerol buffer is composed of 50 mM Tris Hcl (pH 8.3), 40% (v/v) glycerol, 5 mM MgCl2, 0.1 mM ethylenediaminetetraacetic acid (EDTA).
# In vitro transcription. […]
# [1] = tested on: HIV p24 antigen, ACH-2 cells; experiment: HIV p24 antigen production in chronically HIV-infected ACH-2 cells; type: cell-based; settings: 72 h
# Description: LPG, the major surface molecule of Leishmania, has macrophage deactivating functions. Based on the ability of LPG to suppress the generation of ROI and cytokine gene expression, we evaluated the potential that LPG may similarly suppress HIV production. FIGS. 27A-D illustrate the effect of 2 μM LPG pretreatment for 2 h on the induction HIV from chronically HIV-infected monocytic and T cell lines respectively, U1 and ACH-2 cells. LPG treatment of U1 cells for 72 h inhibited basal production of HIV p24 antigen at basal and induction in response to PMA, TNF-α and LPS by 90%, 82%, 60% and 66%, respectively (FIGS. 27A, B). The suppression of HIV p24 antigen production was time-dependent (FIG. 27B). […] The inhibition was also time-dependent. The results are the mean of 2 separate experiments and the SD was less than 10%.
# IL-1β mRNA = experiment: Northern analysis of IL-1β mRNA induction in THP-1 cells; settings: for amount of IL-1β mRNA in response to LPS: LPS 2 μg/ml 4 h
# Description: Human monocytes were cultured in endotoxin free complete medium as previously described. […] THP-1 cells were maintained in RPMI-1640 supplemented with 2 mM L-glutamine, 100 U/ml penicillin-streptomycin, 5×10^−5 M β-mercaptoethanol, and 10% heat-inactivated fetal bovine serum (FBS). For experiments to determine the effect of LPG, THP-1 cells (10×10^6 per condition) were washed with RPMI 1640 and resuspended in complete medium composed of RPMI-1640 supplemented with 2 mM L-glutamine, 100 U/ml penicillin and 100 μg/ml streptomycin. These cells were cultured in 24-well plates with or without 0.01 to 2 μM LPG (0.1 to 20 μg/ml) for different times either before (−h), simultaneously with (0 h) or after (+h) the addition of inducers of IL-1β (eg., LPS, TNF-α, or S. epidermidis). Peripheral blood monocytes enumerated after detachment using a rubber policeman were similarly treated or not with LPG and cultured with stimuli. Cell were stimulated with 0.1 to 3 μg/ml LPS, TNF-α (50 ng/ml), 25 to 50 ng/ml PMA for 4 to 24 h, or opsonized heat-killed S. epiderimidis at ratio of 10 particles per cell.
# Cells treated with or without LPG and/or inducers of IL-1β were harvested by gentle scrapping using a rubber policeman and sedimented by centrifugation at 500 g for 5 minutes in a microfuge. Total RNA was extracted using RNA STAT-60 solution (TEL-TEST “B” Inc., Friendswood, Tex.), based on a single step method for RNA isolation (P. Chomczynski and N. Sacchi, “Single-step Method of RNA Isolation by Acid Guanidinium Thiocyanate-phenol-chloroform Extraction,” Anal. Biochem., 162:156-59 (1987), hereby incorporated by reference), and quantitated by spectrophotometry. Equal amount of total RNA (15-20 μg per sample) was denatured, loaded onto 1.2% agarose-formaldehyde gel, run for 4 h at 30 volts and subsequently transferred by capillary action onto nylon membrane (0.45 μm pore size, NYTRAN, S&S, Keene, N.H.). Membranes were prehybridized at 42° C. for 4 h in prehybridization buffer (50% formamide, 6×SSPE, and 0.5% SDS), and hybridized in hybridization buffer (50% formamide, 6×SSPE, and 5 SDS) containing 10-15×10^6 cpm of random-priming ^32p-labeled IL-1β cDNA (Boehringer Mannheim GmbH, Mannheim, Germany). […] Washed membranes were exposed to KODAK X-OMAT AR films for 24 to 72 h and to phosphor screens (Molecular Dynamics Ltd., Kent, Tenn.) for 24-28 h. Quantitative analysis of the specific bands was performed using Phosphor Imager Analyzer. […] All percent suppression of IL-1β mRNA values were normalized by the amount of GAPDH present in each condition which varied less than 10% between conditions because equivalent amounts of total RNA were loaded for electrophoresis.
substance,measurement,setting,value
lipophosphoglycan [LPG],effect on cell viability,THP-1 cells,not affected
same,inhibition of LPS induced IL-1β mRNA transcription,IL-1β transcription,approximately 65%
same,inhibition of HIV p24 antigen production in response to LPS,[1]; 2 μM LPG pretreatment 2 h,69%
same,inhibition of HIV p24 antigen production in response to PMA,[1]; 2 μM LPG pretreatment 2 h,81%
same,inhibition of HIV p24 antigen production in response to TNF-α,[1]; 2 μM LPG pretreatment 2 h,88%
same,inhibition of basal production of HIV p24 antigen,[1]; 2 μM LPG,62%
same,effect on IL-1β mRNA expression in monocytes,IL-1β mRNA; LPG added simultaneously with the endotoxin,exerted an inhibitory effect
same,effect of washing to remove LPG on LPG's ability to suppress LPS induction of IL-1β mRNA,"IL-1β mRNA; THP-1, 1 or 2 μM LPG 2 h, washed twice, then LPS 4 h",no effect
same,suppression of LPS induction of IL-1β mRNA,"IL-1β mRNA; THP-1, LPG 2 μM added between 2 h before to 1 h after LPS 2 μg/ml",greater than 90%
same,inhibition of TNF-α induced IL-1β mRNA,"IL-1β mRNA; THP-1, LPG 2 μM pretreatment 2 h, TNF-α 50 ng/ml, mean±SD, N=5",approximately 50%±10%
same,inhibition of S. epidermidis-induced IL-1β mRNA,"IL-1β mRNA; THP-1, LPG 2 μM pretreatment for 2 h, N=3",30±10%
same,suppression of S. epidermidis-induced IL-1β mRNA,"IL-1β mRNA; THP-1, LPG 2 μM simultaneous with opsonized S. epidermidis, N=3",greater than 80±19%
same,suppression of PMA induction of IL-1β mRNA,"IL-1β mRNA; THP-1, LPG 2 μM, PMA 25 or 50 ng/ml, N=3",did not suppress
same,inhibitory activity on LPS induction of IL-1β mRNA,"IL-1β mRNA; THP-1, LPG 1 or 2 μM added 4 h before LPS 2 μg/ml",lost
same,effect on S. epidermidis-induced IL-1β mRNA,"IL-1β mRNA; THP-1, LPG 2 h after S. epidermidis induction",minimal to no demonstrable effect
same,suppression of IL-1β mRNA,"IL-1β mRNA; THP-1, LPG added +2 h after LPS stimulation",70%
same,amount of IL-1β mRNA in response to LPS,"IL-1β mRNA; THP-1, pretreated 2 h with 1 μM LPG",lower amounts of IL-1β mRNA
same,amount of IL-1β mRNA in response to LPS,"IL-1β mRNA; THP-1, pretreated 2 h with 2 μM LPG",little or no IL-1β mRNA detected
same,maximum inhibition of IL-1β mRNA (dose-dependent),"IL-1β mRNA; THP-1, pretreated 2 h with LPG 0.01 to 2.0 μM, LPS 0.1 to 3 μg/ml",greater than 90%
same,inhibition of endotoxin-mediated IL-1β mRNA production,"IL-1β mRNA; THP-1, pretreatment with LPG 2 μM, endotoxin 2 μg/ml",completely inhibited
